Assays:
[1] = Non-sink dissolution in FaSSIF (pH 6.5); format: physicochemical; details: FaSSIF buffer solution (pH 6.5), FIG. 9
Protocol: Non-sink dissolution profiles for solid-state forms were acquired using shaked-flask method with excess solid material in FaSSIF medium (pH 6.5) with time-resolved sampling for determination of dissolved quantities of API.
Approx. 10-20 mg of solid sample were weighed into glass vials. 7 ml of respective medium (prewarmed to 37° C.) were added and the suspension was shaken at 450 rpm at 37° C. After 5 min, 10 min, 15 min, 30 min, 60 min, 120 min, 24 h and 48 h, […] was withdrawn and filtered through a 0.2 μm syringe filter. Clear filtrate was analysed by HPLC after suitable dilution to measure the amount of compound/form (may also be referred to as API) dissolved.
FaSSIF: 3 mM sodium taurocholate; 0.75 mM lecithin; 105.9 mM sodium chloride; 28.4 mM monobasic sodium phosphate and 8.7 mM sodium hydroxide, pH 6.5
Levels of dissolved compound/form were analysed by HPLC, with the following conditions: • Column: Chromolith RP-18e 100-3 mm • Solvent A: water/formic acid (999:1; v/v) • Solvent B: acetonitrile/formic acid (999:1; v/v) • Injection volume: 5 μL • Column temperature: 37° C. • HPLC-Gradient: […]

[2] = Dynamic vapor sorption (DVS) water uptake; format: physicochemical
Protocol: DCS water vapour sorption isotherms were acquired on DVS instrument with microbalance and incubator (DVS-Intrinsic, Surface Measurement Systems, SMS). Powder samples were accurately weighed into disposable Al pans and placed on the sample position of the DVS instrument. A nitrogen overall follow rate of 200 mL/min (combined dry and humid stream) was used for humidification. […] For all RH steps, an equilibrium condition of dm/dt≤0.0005 wt %/min was used, with a minimum RH step time of 10 minutes and a maximum RH step time (timeout) of 360 minutes.

Row | SMILES | Initial dissolution rate compared with parent Compound 1 [1] | other results
1 | COc1cc2ncc3c(c2cc1-c1cn(C)nc1C)n(-c1c(F)cncc1OC)c(=O)n3C.O=S(=O)(O)CCS(=O)(=O)O [Compound 1 edisylate] | faster initial dissolution rate | –
2 | COc1cc2ncc3c(c2cc1-c1cn(C)nc1C)n(-c1c(F)cncc1OC)c(=O)n3C.O=C(O)/C=C/C(=O)O [Compound 1 fumarate] | faster initial dissolution rate | Hygroscopic properties [2]: absence of hygroscopic properties
3 | COc1cc2ncc3c(c2cc1-c1cn(C)nc1C)n(-c1c(F)cncc1OC)c(=O)n3C.O=S(=O)(O)c1ccc2ccccc2c1 [Compound 1 napsylate] | faster initial dissolution rate | –
4 | COc1cc2ncc3c(c2cc1-c1cn(C)nc1C)n(-c1c(F)cncc1OC)c(=O)n3C [Form A2] | – | Water adsorbed (DVS) ([2]; up to a relative humidity of 100%, 25° C.): < 2%
5 | COc1cc2ncc3c(c2cc1-c1cn(C)nc1C)n(-c1c(F)cncc1OC)c(=O)n3C [Form A3] | – | Water adsorption (DVS), in words ([2]; up to a relative humidity of about 70%, 25° C.): very little water adsorption

Reference: patent publication US20250188080A1, “IMIDAZOLONYLQUINOLINE COMPOUNDS AND THERAPEUTIC USES THEREOF” (Merck Patent GmbH, priority 2019, published 2025)
